Experimental data taken from the supplement of paper PMC12463676, “Small-molecule dissolution of stress granules by redox modulation benefits ALS models” (Nature Chemical Biology, 2025).

Experiments:
[1] = compound: NC(=O)CCCCC1CCSS1 [lipoamide]; assay: thermal stability z-score vs DMSO; higher = more thermally stabilized by treatment; conditions: HeLa, lipoamide concentration 100 µM
Description: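 Cellular thermal proteome profiling in HeLa cells. Cells were treated with 100 µM lipoamide for 1 h, with or without 1 mM arsenate for a further 1 h, then heated to ten temperatures (37-66.3 °C), and soluble protein was quantified by TMT mass spectrometry relative to 0.1% DMSO controls. The thermal stability score (sum of log2 fold changes minus the abundance score) was transformed to a z-score; mean of n = 3 experiments.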

[2] = compound: O=[As]([O-])(O)O.[K+] [potassium arsenate]; assay: as above; conditions: HeLa; arsenate concentration 1 mM
Description: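 Cellular thermal proteome profiling in HeLa cells treated with 1 mM arsenate for 1 h (DMSO pretreatment), heated to ten temperatures (37-66.3 °C). Soluble protein was quantified by TMT mass spectrometry relative to DMSO controls; the thermal stability score was transformed to a z-score; mean of n = 3 experiments.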

[3] = arsenate co-treatment: 1 mM arsenate 1 h
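Also: each temperature applied for 3 min, abundance score taken as mean log2 fold change at the two lowest temperatures, z-score obtained by mean subtraction and division by SD.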

UniProt Q8N4Q0, sequence (Q8N4Q0 whole entry): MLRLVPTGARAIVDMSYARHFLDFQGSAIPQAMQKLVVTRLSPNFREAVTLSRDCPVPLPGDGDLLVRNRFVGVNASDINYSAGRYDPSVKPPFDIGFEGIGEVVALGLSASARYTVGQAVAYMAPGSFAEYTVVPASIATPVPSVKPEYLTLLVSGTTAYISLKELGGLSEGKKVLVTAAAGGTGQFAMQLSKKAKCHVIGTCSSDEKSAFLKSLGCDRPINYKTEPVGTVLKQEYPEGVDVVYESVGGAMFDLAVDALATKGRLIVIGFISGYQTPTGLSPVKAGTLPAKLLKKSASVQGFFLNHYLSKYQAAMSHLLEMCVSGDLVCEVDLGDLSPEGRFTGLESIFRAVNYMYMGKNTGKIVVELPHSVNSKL
UniProt A9UHW6, sequence (A9UHW6 whole entry): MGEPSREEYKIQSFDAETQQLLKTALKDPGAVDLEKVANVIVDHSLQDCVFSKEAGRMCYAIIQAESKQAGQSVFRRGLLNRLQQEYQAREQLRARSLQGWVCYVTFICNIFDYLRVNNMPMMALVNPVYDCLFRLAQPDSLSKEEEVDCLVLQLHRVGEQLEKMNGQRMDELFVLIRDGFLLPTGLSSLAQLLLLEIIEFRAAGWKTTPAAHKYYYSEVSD
UniProt P09622, sequence (P09622 whole entry): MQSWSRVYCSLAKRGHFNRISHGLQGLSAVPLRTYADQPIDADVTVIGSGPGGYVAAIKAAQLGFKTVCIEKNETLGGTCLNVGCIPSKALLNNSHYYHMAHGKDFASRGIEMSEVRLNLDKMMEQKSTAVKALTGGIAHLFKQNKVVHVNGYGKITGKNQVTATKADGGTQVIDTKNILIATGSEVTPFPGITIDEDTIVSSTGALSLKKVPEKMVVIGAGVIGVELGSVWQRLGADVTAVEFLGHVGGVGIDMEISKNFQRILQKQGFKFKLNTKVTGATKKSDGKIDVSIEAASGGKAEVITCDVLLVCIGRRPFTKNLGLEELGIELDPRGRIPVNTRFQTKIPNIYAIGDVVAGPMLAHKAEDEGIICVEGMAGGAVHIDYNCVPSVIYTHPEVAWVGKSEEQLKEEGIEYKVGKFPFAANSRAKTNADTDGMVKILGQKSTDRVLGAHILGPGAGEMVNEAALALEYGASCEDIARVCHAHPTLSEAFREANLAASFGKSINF
UniProt Q9UKN8, sequence (Q9UKN8 whole entry): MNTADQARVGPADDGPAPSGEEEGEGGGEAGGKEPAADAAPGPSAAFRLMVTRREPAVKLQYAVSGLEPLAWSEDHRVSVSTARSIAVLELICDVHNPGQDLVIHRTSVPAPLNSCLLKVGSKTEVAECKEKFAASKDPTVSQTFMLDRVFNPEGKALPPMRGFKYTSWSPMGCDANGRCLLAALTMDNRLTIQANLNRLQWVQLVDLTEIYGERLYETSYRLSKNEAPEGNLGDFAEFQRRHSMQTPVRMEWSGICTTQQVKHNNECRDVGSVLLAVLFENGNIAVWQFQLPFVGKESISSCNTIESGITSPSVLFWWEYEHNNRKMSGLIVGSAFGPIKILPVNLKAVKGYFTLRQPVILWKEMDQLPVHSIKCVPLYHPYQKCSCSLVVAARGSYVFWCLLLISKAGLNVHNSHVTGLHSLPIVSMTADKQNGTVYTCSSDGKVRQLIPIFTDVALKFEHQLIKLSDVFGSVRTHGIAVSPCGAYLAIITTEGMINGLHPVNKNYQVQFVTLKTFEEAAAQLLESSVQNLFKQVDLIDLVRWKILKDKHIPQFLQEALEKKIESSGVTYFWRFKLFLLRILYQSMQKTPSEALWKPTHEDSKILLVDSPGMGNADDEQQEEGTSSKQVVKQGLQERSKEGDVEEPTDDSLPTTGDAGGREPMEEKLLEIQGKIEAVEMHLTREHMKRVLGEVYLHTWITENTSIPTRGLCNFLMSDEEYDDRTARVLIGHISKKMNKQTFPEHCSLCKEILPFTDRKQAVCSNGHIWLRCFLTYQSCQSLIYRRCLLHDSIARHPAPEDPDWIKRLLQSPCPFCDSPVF
UniProt Q07065, sequence (Q07065 whole entry): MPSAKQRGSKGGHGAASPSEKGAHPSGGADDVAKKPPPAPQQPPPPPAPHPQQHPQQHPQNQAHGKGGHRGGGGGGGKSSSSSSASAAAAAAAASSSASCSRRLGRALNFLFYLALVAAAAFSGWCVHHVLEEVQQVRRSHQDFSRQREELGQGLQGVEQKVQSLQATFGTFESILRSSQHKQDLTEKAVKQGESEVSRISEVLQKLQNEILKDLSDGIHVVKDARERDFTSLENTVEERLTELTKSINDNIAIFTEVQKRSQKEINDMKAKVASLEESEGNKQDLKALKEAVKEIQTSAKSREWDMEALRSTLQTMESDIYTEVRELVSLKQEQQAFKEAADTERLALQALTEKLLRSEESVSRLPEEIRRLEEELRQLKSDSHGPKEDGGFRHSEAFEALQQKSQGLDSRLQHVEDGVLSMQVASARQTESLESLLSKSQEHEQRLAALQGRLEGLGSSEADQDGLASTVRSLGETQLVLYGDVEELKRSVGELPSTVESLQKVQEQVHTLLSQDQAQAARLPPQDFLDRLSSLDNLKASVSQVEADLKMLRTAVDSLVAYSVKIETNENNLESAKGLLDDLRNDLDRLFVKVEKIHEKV
UniProt P30519, sequence (P30519 whole entry): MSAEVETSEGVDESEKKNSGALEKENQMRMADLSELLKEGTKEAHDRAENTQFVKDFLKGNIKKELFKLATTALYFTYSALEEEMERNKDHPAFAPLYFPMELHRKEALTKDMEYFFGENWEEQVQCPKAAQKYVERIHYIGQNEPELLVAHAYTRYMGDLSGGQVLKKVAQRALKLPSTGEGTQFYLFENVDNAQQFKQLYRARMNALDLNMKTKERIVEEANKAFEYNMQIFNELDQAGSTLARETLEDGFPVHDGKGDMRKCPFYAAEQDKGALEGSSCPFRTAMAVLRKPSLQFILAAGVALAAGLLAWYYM
UniProt Q9NUQ6, sequence (Q9NUQ6 whole entry): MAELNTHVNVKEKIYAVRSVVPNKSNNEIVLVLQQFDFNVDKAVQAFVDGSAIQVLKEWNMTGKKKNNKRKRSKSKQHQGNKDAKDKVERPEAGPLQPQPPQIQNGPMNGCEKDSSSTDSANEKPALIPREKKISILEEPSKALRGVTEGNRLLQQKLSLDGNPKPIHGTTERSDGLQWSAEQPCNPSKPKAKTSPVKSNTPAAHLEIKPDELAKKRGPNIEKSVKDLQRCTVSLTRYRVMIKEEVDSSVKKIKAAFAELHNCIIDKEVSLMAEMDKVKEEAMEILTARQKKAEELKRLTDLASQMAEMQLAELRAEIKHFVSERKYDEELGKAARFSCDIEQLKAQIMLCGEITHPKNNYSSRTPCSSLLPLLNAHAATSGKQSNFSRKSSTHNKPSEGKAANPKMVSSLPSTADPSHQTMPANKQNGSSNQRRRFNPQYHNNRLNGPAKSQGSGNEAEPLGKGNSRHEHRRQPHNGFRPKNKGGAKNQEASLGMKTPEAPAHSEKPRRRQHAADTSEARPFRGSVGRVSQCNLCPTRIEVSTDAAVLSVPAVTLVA
UniProt P28072, sequence (P28072 whole entry): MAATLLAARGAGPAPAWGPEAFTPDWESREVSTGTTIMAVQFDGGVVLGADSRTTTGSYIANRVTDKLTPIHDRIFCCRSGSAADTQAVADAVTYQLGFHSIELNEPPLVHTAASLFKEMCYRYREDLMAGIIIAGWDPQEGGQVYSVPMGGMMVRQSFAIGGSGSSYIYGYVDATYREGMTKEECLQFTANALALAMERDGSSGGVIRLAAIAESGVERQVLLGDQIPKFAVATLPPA
UniProt O14965, sequence (O14965 whole entry): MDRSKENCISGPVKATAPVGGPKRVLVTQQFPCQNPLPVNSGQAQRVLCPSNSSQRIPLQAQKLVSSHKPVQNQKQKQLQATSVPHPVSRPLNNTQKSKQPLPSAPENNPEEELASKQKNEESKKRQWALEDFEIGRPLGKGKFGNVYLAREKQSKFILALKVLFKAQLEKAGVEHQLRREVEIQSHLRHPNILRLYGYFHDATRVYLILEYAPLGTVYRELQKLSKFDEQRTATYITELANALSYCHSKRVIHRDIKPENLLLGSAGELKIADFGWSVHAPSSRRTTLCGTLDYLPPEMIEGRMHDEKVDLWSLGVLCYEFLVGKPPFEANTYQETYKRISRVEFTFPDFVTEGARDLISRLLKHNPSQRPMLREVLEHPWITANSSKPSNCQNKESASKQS
UniProt Q9UNN5, sequence (Q9UNN5 whole entry): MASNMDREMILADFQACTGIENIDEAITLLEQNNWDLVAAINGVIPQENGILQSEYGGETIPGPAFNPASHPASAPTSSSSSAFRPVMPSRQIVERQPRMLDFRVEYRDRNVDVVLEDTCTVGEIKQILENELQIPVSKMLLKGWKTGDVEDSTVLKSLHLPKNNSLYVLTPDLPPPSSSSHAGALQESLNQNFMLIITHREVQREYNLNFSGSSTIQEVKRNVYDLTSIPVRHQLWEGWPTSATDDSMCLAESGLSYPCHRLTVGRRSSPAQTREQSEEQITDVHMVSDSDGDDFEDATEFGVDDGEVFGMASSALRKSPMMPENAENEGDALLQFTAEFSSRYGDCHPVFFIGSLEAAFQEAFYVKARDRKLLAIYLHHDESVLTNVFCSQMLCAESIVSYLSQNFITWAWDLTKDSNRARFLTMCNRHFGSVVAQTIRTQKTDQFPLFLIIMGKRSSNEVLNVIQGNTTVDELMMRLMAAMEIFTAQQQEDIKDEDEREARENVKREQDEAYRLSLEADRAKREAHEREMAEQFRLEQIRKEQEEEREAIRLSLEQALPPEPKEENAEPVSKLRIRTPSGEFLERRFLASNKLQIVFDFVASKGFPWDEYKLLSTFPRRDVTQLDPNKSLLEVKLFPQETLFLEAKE

| Target | thermal stability z-score [1, 3] | thermal stability z-score ([1]; arsenate co-treatment: none) | thermal stability z-score [2] |
| --- | --- | --- | --- |
| PDCD2L (UniProt Q9BRP1) | 0.275 | 0.139 | -0.161 |
| XRCC1 (UniProt P18887) | -0.0745 | 0.0492 | -0.417 |
| EIF2B3 (UniProt Q9NR50) | -0.44 | 0.0579 | 0.582 |
| ZW10 (UniProt O43264) | -0.0261 | -0.137 | 0.692 |
| GTF2A1 (UniProt P52655) | 1.26 | 1.56 | 1.02 |
| C3 (UniProt P01024) | -1.67 | -1.75 | -0.371 |
| DYNC1H1 (UniProt Q14204) | -0.0235 | 0.118 | -0.164 |
| HAUS7 (UniProt Q99871) | 0.0237 | -0.0345 | -0.0643 |
| NAA25 (UniProt Q14CX7) | 0.177 | 0.0532 | -0.0259 |
| ZADH2 (UniProt Q8N4Q0) | 0.265 | 0.233 | 0.319 |
| IFT74 (UniProt Q96LB3) | -0.121 | -0.049 | -0.115 |
| STX4 (UniProt Q12846) | 0.741 | 0.546 | -0.199 |
| SMAP1 (UniProt Q8IYB5) | -0.131 | -0.152 | -0.139 |
| BICD2 (UniProt Q8TD16) | 0.184 | 0.121 | 0.755 |
| PSMD3 (UniProt O43242) | 0.084 | 0.0492 | 0.115 |
| GGCT (UniProt O75223) | 1.7 | 1.02 | 1.11 |
| EPN1 (UniProt Q9Y6I3) | 0.241 | 0.408 | 0.491 |
| DLD (UniProt P09622) | 0.662 | 1.04 | -0.681 |
| FAF1 (UniProt Q9UNN5) | 0.777 | 0.869 | 0.738 |
| RPS6KA3 (UniProt P51812) | -0.607 | -0.345 | 0.388 |
| IMMT (UniProt Q16891) | 0.667 | 0.854 | 1.31 |
| CKAP4 (UniProt Q07065) | -3.96 | -2.84 | -0.938 |
| PTK2 (UniProt Q05397) | 0.189 | 0.122 | -0.0048 |
| TUBB2A (UniProt Q13885) | 0.383 | 0.458 | 0.692 |
| AURKA (UniProt O14965) | -0.091 | -0.269 | -0.391 |
| DAP3 (UniProt P51398) | -0.597 | -0.135 | 0.132 |
| ERO1A (UniProt Q96HE7) | -0.923 | 0.193 | 0.59 |
| GTF3C4 (UniProt Q9UKN8) | 0.237 | 0.0733 | -1.21 |

| Target | thermal stability z-score [1, 3] | thermal stability z-score ([1]; arsenate co-treatment: none) | thermal stability z-score [2] |
| --- | --- | --- | --- |
| SPATS2L (UniProt Q9NUQ6) | 0.296 | 0.638 | -0.0325 |
| INADL (UniProt Q8NI35) | -0.13 | -0.0923 | -0.0383 |
| PRKCA (UniProt P17252) | 0.358 | 0.32 | 0.458 |
| LAMB1 (UniProt P07942) | -3.22 | -2.66 | 0.724 |
| SPATA20 (UniProt Q8TB22) | 0.172 | 0.136 | -0.121 |
| SMG8 (UniProt Q8ND04) | -1.73 | -0.705 | 0.575 |
| EIF4H (UniProt Q15056) | 0.493 | 0.714 | 0.688 |
| S100A11 (UniProt P31949) | 1.19 | 1.12 | 0.639 |
| ARL8B (UniProt Q9NVJ2) | -0.122 | -0.507 | -0.267 |
| MIF4GD (UniProt A9UHW6) | 0.658 | 0.0749 | -0.165 |
| POP4 (UniProt O95707) | 0.462 | 0.069 | -0.193 |
| SNAPC3 (UniProt Q92966) | -0.219 | -0.258 | -0.108 |
| RP2 (UniProt O75695) | 0.38 | 1.49 | -0.738 |
| IL18 (UniProt Q14116) | 0.282 | -0.0498 | -0.226 |
| FUK (UniProt Q8N0W3) | 0.775 | 0.461 | 0.0734 |
| LUC7L3 (UniProt O95232) | -1.15 | -0.26 | -0.899 |
| XRCC4 (UniProt Q13426) | 2.01 | 1.89 | 1.24 |
| IGBP1 (UniProt P78318) | 0.172 | 0.441 | -0.613 |
| PSMB6 (UniProt P28072) | 0.174 | 0.262 | -0.414 |
| PYM1 (UniProt Q9BRP8) | 0.618 | -0.287 | -0.578 |
| FAF2 (UniProt Q96CS3) | -0.435 | -0.684 | -0.262 |
| HMOX2 (UniProt P30519) | 0.676 | 1.34 | 0.895 |
| EMC3 (UniProt Q9P0I2) | -0.0707 | -0.245 | -0.133 |
| TXNDC5 (UniProt Q8NBS9) | -2.16 | -1.86 | 0.0646 |
| SMOC1 (UniProt Q9H4F8) | -0.587 | -0.458 | -1.55 |
| TNS1 (UniProt Q9HBL0) | -0.0135 | -0.0322 | -0.162 |
| RPL10 (UniProt P27635) | 0.0934 | -0.15 | -0.781 |
